Test results taken from PubChem BioAssay (NCI).
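Compound exposure: 48 hours, 5 concentrations, 96-well plates. TGI: concentration producing complete growth inhibition.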 Where a SMILES comes first, the peptide text is derived from it. [ ]: non-standard residue; d: D form. The star is where a group is joined. ξ: configuration not given here. ξPhe(4-NO2) = NC(Cc1ccc([N+](=O)[O-])cc1)C(=O)O; Boc = CC(C)(C)OC(=O)*

Tests used:
Assay in all cases: NCI tumour cell line growth inhibition, 48 h
[1] = test system: SW-620 colon
[2] = test system: RPMI-8226 leukemia
[3] = test system: HOP-92 NSCLC
[4] = test system: T-47D breast
[5] = test system: HCC-2998 colon
[6] = test system: SK-MEL-28 melanoma
[7] = test system: HS 578T breast
[8] = test system: HCT-15 colon
[9] = test system: ACHN renal
[10] = test system: UACC-257 melanoma
[11] = test system: TK-10 renal
[12] = test system: NCI/ADR-RES ovarian
[13] = test system: SF-539 CNS

SMILES | TGI [1] [µM] | TGI [2] [µM] | TGI [3] [µM] | TGI [4] [µM] | TGI [5] [µM] | TGI [6] [µM] | TGI [7] [µM] | TGI [8] [µM] | TGI [9] [µM] | TGI [10] [µM] | TGI [11] [µM] | TGI [12] [µM] | TGI [13] [µM]
CN(C(=O)c1ccc(Cl)cc1)C(=S)N1CCN(c2ccccc2)CC1 | > 100 | > 100 | > 100 | > 100 | > 100 | > 100 | 95.6 | > 100 | > 100 | > 100 | > 100 | – | –
C=CC(C)(C)n1cc(C2=C(O)C(=O)C(c3c(CC=C(C)C)[nH]c4ccccc34)=C(O)C2=O)c2ccccc21 | 13.5 | – | 3.35 | 7.59 | 2.33 | 2.03 | 25 | 7.6 | 4.32 | 9.3 | – | 9.09 | –
CCOC(OCC)[C@H](N)[C@@H](O)[C@@H](O)[C@H]1COC(C)(C)O1 | > 100 | > 100 | – | – | – | > 100 | > 100 | > 100 | > 100 | > 100 | > 100 | > 100 | –
COc1cc(C2SCC(=O)N2NC(=O)c2ccc(NC(C)=O)cc2OC)ccc1O (centres undefined) | > 100 | > 100 | 73.9 | > 100 | – | > 100 | > 100 | > 100 | > 100 | – | – | > 100 | > 100
O=C1CN(c2ccccc2)C(=O)CN1CCN1CC(=O)N(c2ccccc2)CC1=O | > 100 | > 100 | > 100 | – | > 100 | > 100 | > 100 | > 100 | > 100 | > 100 | > 100 | – | > 100
CCNC(=O)CNC(=O)C(Cc1ccc([N+](=O)[O-])cc1)NC(=O)OC(C)(C)C (centres undefined) (Boc-[ξPhe(4-NO2)]-Gly-NHEt) | > 100 | > 100 | > 100 | – | > 100 | > 100 | > 100 | > 100 | > 100 | – | > 100 | > 100 | –
CCCCC(N)CSSCC(N)CCCC (centres undefined) | 58 | 61.5 | – | – | 35.4 | 34.8 | – | 63.2 | > 100 | 44.9 | > 100 | – | 47.8
CC(C)C1=CC23CCC4C(C)(C(=O)O)CCCC4(C)C2CC1C1C(=O)N(c2cccc(N4C(=O)C5C6CC7C8(C)CCCC(C)(C(=O)O)C8CCC7(C=C6C(C)C)C5C4=O)c2)C(=O)C13 (centres undefined) | 31.4 | – | 39.6 | 33.7 | 20.3 | 21.6 | 24.6 | 26.9 | 26.1 | – | 30.4 | – | 57.7
NC(Cc1ccc(O)cn1)C(=O)O (centres undefined) | > 100 | > 100 | > 100 | – | > 100 | > 100 | > 100 | > 100 | > 100 | > 100 | > 100 | > 100 | > 100
COc1cc(C(=O)N(C(=S)OC23CC4CC(CC(C4)C2)C3)c2ccccc2)cc(OC)c1OC | > 100 | – | > 100 | > 100 | 61.4 | > 100 | > 100 | > 100 | > 100 | > 100 | > 100 | > 100 | > 100
O=C(NNC(=O)c1c(Cl)c(Cl)c(Cl)c(Cl)c1-c1nc2ccccc2[nH]1)c1ccc(Cl)cc1 | > 100 | 98.5 | 84.7 | 93.5 | – | > 100 | – | > 100 | > 100 | – | – | > 100 | > 100
Brc1ccc(C2CC3(c4ccccc4)ON=C(c4ccccc4)N3c3ccccc3S2)cc1 (centres undefined) | > 100 | – | > 100 | > 100 | > 100 | > 100 | > 100 | > 100 | > 100 | > 100 | > 100 | > 100 | > 100
OC1(C2(c3ccc(Cl)cc3)CCCC2)c2ccccc2C2=NCCN21 (centres undefined) | 48.6 | – | 28.6 | 22 | 4 | 31 | > 100 | 31 | 30.5 | 29.4 | 28.9 | 33.2 | –
CC(C)(C)OC(=O)N1CCC(NC(=O)NC2CCN(C(=O)OC(C)(C)C)CC2)CC1 | > 100 | > 100 | > 100 | – | > 100 | > 100 | > 100 | > 100 | > 100 | > 100 | > 100 | > 100 | > 100
CC(=O)OCCCCn1cnc2c(Cl)nc(Nc3ccccc3)nc21 | > 100 | > 100 | – | > 100 | > 100 | > 100 | > 100 | > 100 | > 100 | > 100 | > 100 | > 100 | > 100
O=C1CSC(c2cccc(Oc3ccccc3)c2)N1c1cccc(Cl)c1Cl (centres undefined) | > 100 | – | 45.8 | > 100 | 26.2 | > 100 | 84.7 | 46.8 | 47.9 | 61.5 | > 100 | 59.9 | 58.3
C/C(=N\Nc1nc2ccccc2o1)c1cc2ccccc2cn1 | > 100 | > 20.7 | 11.1 | > 100 | – | 48.6 | 11.2 | > 20.3 | 2.55 | – | – | – | –
COc1cc2c3cc1Oc1c(OC)c(OC)cc4c1C(Cc1ccc(O)c(c1)-c1cc(ccc1OC)CC3N(C)CC2)N(C)CC4 (centres undefined) | > 100 | – | 53.7 | 68.9 | 37.9 | 82.7 | 59.1 | 25.4 | 56.8 | 59.3 | > 100 | 73.9 | 23.4
Clc1nc(Nc2nc3ccccc3[nH]2)nc(Cl)c1-c1ccccc1 | 35.6 | > 100 | 35 | > 100 | – | 27 | 56.4 | 34.2 | 34.7 | 80.2 | > 100 | 92.7 | 34.6
